The source of these data is patent publication US4016167A, “N-Substituted-6,8-dioxamorphinans” (Bristol-Myers Company, priority 1975, dated 1977).

The test system of experiment [1] is phenylquinone induced writhings. The experiment can be described thus: Phenylquinone writhing, mouse s.c. (agonist activity). In kind it is in vivo. Conditions: 50 percent reduction in number of phenylquinone induced writhings, tested as salts, reported as free base; for ED50: Mus musculus, sc; for ED50 Agonist Activity, Phenylquinone Writhing: tartrate. The source says:
^1 A 50 percent reduction in number of phenylquinone induced writhings (Siegmund, E.A. et al., Proc. Soc. Biol. & Med. 95, 729; 1957).

The test system of experiment [2] is Straub Tail induced by oxymorphone. The experiment can be described thus: Antagonism of Straub Tail induced by oxymorphone in mice (antagonist activity). In kind it is in vivo, mouse. The note with it: antagonism of Straub Tail induced by oxymorphone (2 mg./kg. s.c.) in 50 percent of mice, reported as free base; for ED50: Mus musculus, sc; for ED50 Antagonist Activity, Oxymorphone Straub Tail: s.c., tartrate. The procedure: ^2 Antagonism of Straub Tail induced by oxymorphone (2 mg./kg. s.c.) in 50 percent of mice.

The test system of experiment [3] is agonist or antagonist activity in mice and rats. The experiment can be described thus: Agonist and/or antagonist activity in mice and rats, overall assessment of the testing results. It counts as in vivo. The note with it: conclusion from Table I.
The subject of experiment [4] is analgesic effect induced by morphine. The experiment can be described thus: Morphine antagonism, rat tail flick (antagonist activity). The note with it: sc, read-out: ED50 Antagonist Activity, Morphine Antagonism Rat Tail Flick.
For experiment [5] the following is noted: prior art; cited from earlier work.

Structures can show the parent of a compound that is named as a salt. Some results are limits rather than exact numbers.

The term ED50 denotes the dose at which the effect has come halfway, by size or by number of responders. In the case of `C[C@@]12OCOC[C@@]13CCN(CC1CC1)[C@@H]2Cc1ccc(O)cc13.O=C(O)/C=C/C(=O)O` [XVc, 17-Cyclopropylmethyl-3-hydroxy-14β-methyl-6,8-dioxamorphinan hydrogen fumarate], the ED50 in experiment [1] is 0.064 mg/kg; in experiment [2], 0.63 mg/kg; in experiment [4] it was 0.1 mg/kg. Moreover, the “agonist or antagonist activity (in words)” value in experiment [3] is listed as “Outstanding”.

`Oc1ccc2c(c1)[C@]13CCN(CC4CC4)[C@H](C2)[C@@H]1OCOC3` [XVa, 17-Cyclopropylmethyl-3-hydroxy-6,8-dioxamorphinan]: the figures for the ED50 in experiment [1], in experiment [2] and in experiment [4] were 0.02 mg/kg, 0.3 mg/kg and 0.12 mg/kg, respectively. For the same molecule, the “agonist or antagonist activity (in words)” value in experiment [3] is reported as “Outstanding”.

For `COc1ccc2c(c1)[C@]13CCN(CC4CC4)[C@H](C2)[C@@H]1OCOC3.O=C(O)/C=C/C(=O)O` [XIVa, 17-Cyclopropylmethyl-3-methoxy-6,8-dioxamorphinan hydrogen fumarate], the ED50 in experiment [1] was 0.3 mg/kg; in experiment [2], roughly 15 mg/kg. In experiment [3], the “agonist or antagonist activity (in words)” value was “Outstanding”.

For `COc1ccc2c(c1)[C@]13CCN(CC4CC4)[C@H](C2)[C@@H]1OC(C)(C)OC3.O=C(O)C(O)C(O)C(=O)O` (single isomer, unassigned) [(-)-XIVd, (- )-17-Cyclopropylmethyl-7,7-dimethyl-3-methoxy-6,8-dioxamorphinan-(+ )-hydrogen tartrate], in experiment [1], the “ED50 Agonist Activity, Phenylquinone Writhing” value turned out to be 0.066 mg/kg. Besides, the “ED50 Antagonist Activity, Oxymorphone Straub Tail” value in experiment [2] turned out to be 5 mg/kg. Besides, the “agonist or antagonist activity (in words)” value in experiment [3] is on record as “Outstanding”. Also, the ED50 in experiment [4] is 1.19 mg/kg.

For `COc1ccc2c(c1)[C@]13CCN(CC4CC4)[C@H](C2)[C@@H]1OC(C)(C)OC3.O=C(O)C(O)C(O)C(=O)O` (single isomer, unassigned) [(+)-XIVd, (+)-17-Cyclopropylmethyl-7,7-dimethyl-3-methoxy-6,8-dioxamorphinan-(-)-hydrogen tartrate], the “ED50 Agonist Activity, Phenylquinone Writhing” value in experiment [1] is greater than 40 mg/kg. Further, the “ED50 Antagonist Activity, Oxymorphone Straub Tail” value in experiment [2] is greater than 40 mg/kg.

Take `CC1(C)OCC23CCN(CC4CC4)C(Cc4ccc(O)cc42)C3O1` (single isomer, unassigned) [(+)-XVd, (+)-17,Cyclopropylmethyl-7,7-dimethyl-3-hydroxy-6,8-dioxamorphinan (-) tartrate]: the ED50 was greater than 10 mg/kg in experiment [1] and greater than 40 mg/kg in experiment [2].

For `COc1ccc2c(c1)[C@]13CCN(CC4CCC4)[C@H](C2)[C@@H]1OC(C)(C)OC3.O=C(O)/C=C/C(=O)O` [XIVe, 17-Cyclobutylmethyl-7,7-dimethyl-3-methoxy-6,8-dioxamorphinan hydrogen fumarate], the ED50 was 6.1 mg/kg in experiment [1] and greater than 40 mg/kg in experiment [2].

Consider `CC1(C)OC[C@]23CCN(CC4CC4)[C@H](Cc4ccc(O)cc42)[C@@H]3O1.O=C(O)/C=C/C(=O)O` [XVd, 17-Cyclopropylmethyl-7,7-dimethyl-3-hydroxy-6,8-dioxamorphinan hydrogen fumarate], for which the ED50 in experiment [1] amounted to 0.009 mg/kg; in experiment [2] it was 0.16 mg/kg; in experiment [4] it was 0.096 mg/kg. The “agonist or antagonist activity (in words)” value in experiment [3] is given as “Outstanding”.

Regarding `COc1ccc2c(c1)[C@]13CCN(CC4CC4)[C@H](C2)[C@@H]1OC(C)(C)OC3.O=C(O)/C=C/C(=O)O` [XIVd, 17-Cyclopropylmethyl-7,7-dimethyl-3-methoxy-6,8-dioxamorphinan hydrogen fumarate], the figures for the ED50 in experiment [1] and in experiment [2] were 0.29 mg/kg and roughly 30 mg/kg, respectively. For the same molecule, the “agonist or antagonist activity (in words)” value in experiment [3] was “Outstanding”.

In the case of `COc1ccc2c(c1)[C@]13CCN(C)[C@H](C2)[C@@H]1OC(C)(C)OC3` [IXd, 3-Methoxy-7,7,17-trimethyl-6,8-dioxamorphinan], the median effective dose (ED50) in experiment [1] is 0.63 mg/kg; in experiment [2], greater than 40 mg/kg.

In the case of `COc1ccc2c(c1)[C@]13CCN(CC4CC4)[C@H](C2)[C@]1(C)OCOC3` [XIVc, 17-Cyclopropylmethyl-3-methoxy-14β-methyl-6,8-dioxamorphinan], the values for the ED50 in experiment [1] and in experiment [2] were roughly 5 mg/kg and greater than 40 mg/kg, respectively.

With `COc1ccc2c(c1)[C@]13CCN[C@H](C2)[C@@H]1OCOC3.O=C(O)/C=C/C(=O)O` [XIIa, 3-Methoxy-6,8-dioxamorphinan hydrogen fumarate], the ED50 is 7.4 mg/kg in experiment [1] and greater than 20 mg/kg in experiment [2].

`COc1ccc2c(c1)[C@]13CCN(C)[C@H](C2)[C@]1(C)OCOC3` [IXc, 14β,17-Dimethyl-3-methoxy-6,8-dioxamorphinan]: the figures for the ED50 in experiment [1] and in experiment [2] were 0.31 mg/kg and greater than 40 mg/kg, respectively.

In the case of `C[C@H]1[C@H]2Cc3ccc(O)cc3[C@]1(C)CCN2CC1CC1` [cyclazocine], the “agonist and antagonist properties” value in experiment [5] is “both properties”.

Take `COc1ccc2c(c1)[C@]13CCN(C)[C@H](C2)[C@@H]1OCOC3` [IXa, 3-Methoxy-17-methyl-6,8-dioxamorphinan]: the ED50 in experiment [1] was roughly 5 mg/kg; in experiment [2], greater than 20 mg/kg.

As for `O=C(O)/C=C/C(=O)O.Oc1ccc2c(c1)[C@]13CCN(CC4CCC4)[C@H](C2)[C@@H]1OCOC3` [XVb, 17-Cyclobutylmethyl-3-hydroxy-6,8-dioxamorphinan fumarate], the ED50 in experiment [1] was 0.14 mg/kg; in experiment [2] it was roughly 15 mg/kg; in experiment [4], roughly 9 mg/kg. In experiment [3], the “agonist or antagonist activity (in words)” value is on record as “Outstanding”.

In the case of `CN1CC[C@]23COC(C)(C)O[C@H]2[C@H]1Cc1ccc(O)cc13` [Xd, 3-Hydroxy-7,7,17-trimethyl-6,8-dioxamorphinan], the results for the median effective dose (ED50) in experiment [1] and in experiment [2] were 0.08 mg/kg and greater than 40 mg/kg, respectively.

For the molecule `CN1CC[C@]23COCO[C@@]2(C)[C@H]1Cc1ccc(O)cc13.O=C(O)/C=C/C(=O)O` [Xc, 14β,17-Dimethyl-3-hydroxy-6,8-dioxamorphinan fumarate], the median effective dose (ED50) was 0.04 mg/kg in experiment [1] and roughly 40 mg/kg in experiment [2].

`CN1CC[C@]23COCO[C@H]2[C@H]1Cc1ccc(O)cc13.O=C(O)/C=C/C(=O)O` [Xa, 3-Hydroxy-17-methyl-6,8-dioxamorphinan fumarate]: the ED50 in experiment [1] was 0.3 mg/kg; in experiment [2], greater than 40 mg/kg.

Take `CC1(C)OC[C@]23CCN(CC4CC4)[C@H](Cc4ccc(O)cc42)[C@@H]3O1.O=C(O)C(O)C(O)C(=O)O` (single isomer, unassigned) [(-)-XVd, (- )-17-Cyclopropylmethyl-7,7-dimethyl-3-hydroxy-6,8-dioxamorphinan (+ ) tartrate]: the ED50 in experiment [1] amounted to 0.005 mg/kg; in experiment [2], 0.09 mg/kg; in experiment [4] it was 0.032 mg/kg. Moreover, in experiment [3], the “agonist or antagonist activity (in words)” value was “Outstanding”.

As to `COc1ccc2c(c1)[C@]13CCN(CC4CCC4)[C@H](C2)[C@@H]1OCOC3` [XIVb, 17-Cyclobutylmethyl-3-methoxy-6,8-dioxamorphinan], the ED50 in experiment [1] is 2 mg/kg; in experiment [2] it was greater than 40 mg/kg.

For the molecule `CC1(C)OC[C@]23CCN(CC4CCC4)[C@H](Cc4ccc(O)cc42)[C@@H]3O1.O=C(O)/C=C/C(=O)O` [XVe, 17-Cyclobutylmethyl-7,7-dimethyl-3-hydroxy-6,8-dioxamorphinan hydrogen fumarate], the ED50 in experiment [1] was 0.04 mg/kg; in experiment [2], roughly 15 mg/kg. Besides, the “agonist or antagonist activity (in words)” value in experiment [3] is “Outstanding”.

On to `COc1ccc2c(c1)[C@]13CCN[C@H](C2)[C@]1(C)OCOC3.O=C(O)/C=C/C(=O)O` [XIIc, 3-Methoxy-14β-methyl-6,8-dioxamorphinan hydrogen fumarate], for which the median effective dose (ED50) was 2 mg/kg in experiment [1] and roughly 30 mg/kg in experiment [2].
